Among the data in the NIST ThermoML archive (doi:10.1021/je400134d) are speed of sound and mass density values, retold here.

Broadly, the speed of sound is how fast a sound wave travels through the sample. The mass density is mass per unit of volume.

± gives the expanded uncertainty stated by the source.

The conditions of the data set: 101.33 kPa, Liquid; for speed of sound: Pulse-echo method; for mass density: Vibrating tube method.

On to `C1CCCCC1` [cyclohexane], for which the speed of sound reads like this: (293.15 K) 1278 ± 1 m/s; (298.15 K) 1253.6 ± 0.9 m/s; (303.15 K) 1229.9 ± 0.9 m/s. Moreover, the mass density by setting is: (293.15 K) 778.706 ± 0.15 kg/m3; (298.15 K) 774.018 ± 0.16 kg/m3; (303.15 K) 769.297 ± 0.16 kg/m3.

As to `Cc1ccccc1` [toluene], the speed of sound is, setting by setting: (293.15 K) 1325.8 ± 0.9 m/s; (298.15 K) 1304.4 ± 0.8 m/s; (303.15 K) 1283.7 ± 0.8 m/s. For the same molecule, the mass density reads like this: (293.15 K) 866.98 ± 0.1 kg/m3; (298.15 K) 862.295 ± 0.11 kg/m3; (303.15 K) 857.725 ± 0.11 kg/m3.

As to `CNc1ccccc1` [N-methylaniline], the speed of sound came to 1582.7 ± 2.2 m/s (293.15 K), 1564.7 ± 2.2 m/s (298.15 K) and 1545.8 ± 2.2 m/s (303.15 K). In addition, the mass density came to 986.444 ± 0.82 kg/m3 (293.15 K), 982.487 ± 0.82 kg/m3 (298.15 K) and 978.541 ± 0.81 kg/m3 (303.15 K).

Turning to `CCCCCCC` [heptane], the speed of sound reads like this: (293.15 K) 1150.9 ± 0.9 m/s; (298.15 K) 1129.6 ± 0.9 m/s; (303.15 K) 1111.2 ± 0.9 m/s. The mass density (293.15 K) turned out to be 683.845 ± 0.18 kg/m3, the mass density (298.15 K) stood at 679.603 ± 0.18 kg/m3 and the mass density (303.15 K) turned out to be 675.532 ± 0.19 kg/m3.
